Data on one molecule can be found in patent US20040132793A1, “Pyrazole derivatives” (Pfizer Inc., priority 2002, published 2004).

One data set is described as follows: Metabolism in Supermix. It counts as in vitro ADME. The note with it: human, Supermix (Gentest), pH 7.4; Supermix 0.05 μM cytochrome P450; substrate 1 μM; 37° C., 1 hour; read-out: t 1/2 (Supermix). As for the experimental part:
(§1) A. Metabolism in Human Liver Microsomes and Supermix™ The metabolic vulnerability of the compounds of the invention in microsomes and Supermix™ may be assayed as follows. The microsomal fraction is isolated from several human livers and the P450 content determined. Supermix™ is obtained from Gentest. Human microsomes (0.5 μM cytochrome P450) and Supermix™ (0.05 μM cytochrome P450) are added to an incubation media containing 50 mM phosphate buffer (pH7.4), 5 mM MgCl2, 1 mM NADP and an NADPH generating system consisting of isocitrate and isocitrate dehydrogenase. The substrate concentration is 1 μM and incubations are carried out at 37° C. for 1 hour. Samples are taken at time points throughout this period and analysed using hplc-ms-ms assay.

The nature of data set [1]: Metabolism in human liver microsomes. The note with it: pH 7.4, human microsomes 0.5 μM cytochrome P450, substrate 1 μM, 37° C., 1 hour, read-out: t 1/2 (human microsomal). It counts as in vitro ADME. As for the experimental part: as §1
The target in data set [2] is T1, purified recombinant HIV-1 reverse transcriptase (Human immunodeficiency virus type 1 group M subtype B, UniProt P04585).
T1 construct: purified recombinant HIV-1 reverse transcriptase (RT, EC, 2.7.7.49); made in house; host or cells: Escherichia coli
The data set can be described thus: Inhibition of HIV-1 reverse transcriptase enzyme. The format is biochemical. From the text:
The activity of the compounds of the invention as reverse transcriptase inhibitors may be measured using the following assay.
Inhibition of HIV-1 Reverse Transcriptase Enzyme
Using purified recombinant HIV-1 reverse transcriptase (RT, EC, 2.7.7.49) obtained by expression in Escherichia Coli, a 96-well plate assay system is established for assaying a large number of samples using either the Poly(rA)-oligo(dT) Reverse Transcriptase [3H]-SPA enzyme assay system (Amersham NK9020) or the [3H]-flashplate enzyme assay system (NEN-SMP 103) and following the manufacturer's recommendations. The compounds are dissolved in 100% DMSO and diluted with the appropriate buffer to a 5% final DMSO concentration. The inhibitory activity is expressed in percent inhibition relative to DMSO control.

Data set [3] in a line: Metabolism in human hepatocytes. The format is in vitro ADME. The note with it: cryopreserved human hepatocytes 1 million cells/ml; substrate 3 μM; 37° C., 3 hours. Here is the method:
B. Metabolism in Human Hepatocytes.
The metabolic vulnerability of the compounds of the invention in human hepatocytes may be assayed as follows.
Cryopreserved human hepatocytes are obtained from In vitro Technologies, Inc. The hepatocytes are thawed and suspended at 1 million cells/ml in 50% Krebs-Heinsleit buffer: 50% Williams E media containing 10% foetal bovine serum. The substrate concentration is 3 μM and incubations are carried out at 37° C. for 3 hours. Samples are taken at time points throughout this period and analysed using hplc-ms-ms assay.

With `Cc1c(Oc2cc(C#N)cc(C#N)c2)c(C2CC2)nn1CCO` [Example 1, 5-{[3-Cyclopropyl-1-(2-hydroxyethyl)-5-methyl-1H-pyrazol-4-yl]oxy}isophthalonitrile], the half-life at 1 μM (in the data set “Metabolism in Supermix”; in data set [1]) was above 2 h each time. For the same molecule, the IC50 in data set [2] came to 295 nM. In data set [3], the unbound hepatocyte clearance is below 9 mL/min/kg.
